Experimental data taken from patent US11377441B2, “Covalent inhibitors of KRAS” (Araxes Pharma LLC, priority 2017, dated 2022).

Biological target: T1, KRAS G12C 1-169, his-tagged protein, GDP-loaded (Homo sapiens, UniProt P01116, G12C)
T1 construct: KRAS G12C 1-169, his-tagged protein, GDP-loaded
Test: Biochemical assay: covalent modification of KRAS G12C measured by mass spectrometry (RapidFire/TOF or Q-Exactive)
Type: binding
Conditions: covalent binding to (modification of) KRAS G12C after a ten minute incubation period
Outline: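 GDP-loaded KRAS G12C 1-169 (his-tagged) at 2 μM or 0.5 μM in 20 mM Hepes, 150 mM NaCl, 1 mM MgCl2, incubated with compound at 100, 30 or 10 μM at room temperature for 10 min, 30 min, 2 h or 24 h, then quenched with formic acid. Intact-protein LC-MS, deconvolved; percent modification from modified versus unmodified protein.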

SMILES	Binding %
C=CS(=O)(=O)N1C[C@H](C)N(c2nc(N3CC(N(C)C)C3)nc3c(F)c(-c4c(C)ccc5cnn(C)c45)c(Cl)cc23)C[C@H]1C [Compound 191, 1-(6-chloro-7-(1,6-dimethyl-1H-indazol-7-yl)-4-((2S,5R)-2,5-dimethyl-4-(vinylsulfonyl)piperazin-1-yl)-8-fluoroquinazolin-2-yl)-N,N-dimethylazetidin-3-amine]	+ (+ indicates binding activity greater than 0% and up to 50%)
C=CC(=O)N1C[C@H](C)N(c2nc(N3CC(NC)C3)nc3c(F)c(-c4c(C)ccc5[nH]nc(C)c45)c(Cl)cc23)C[C@H]1C (atropisomer, axis not shown) [Compound 220, 1-((2R,5S)-4-((R)-6-chloro-7-(3,5-dimethyl-1H-indazol-4-yl)-8-fluoro-2-(3-(methylamino)azetidin-1-yl)quinazolin-4-yl)-2,5-dimethylpiperazin-1-yl)prop-2-en-1-one]	+++ (+++ indicates binding activity greater than 80%)
C=CC(=O)N1[C@H](C)CN(c2nc(N3CC(N(C)C)C3)nc3c(F)c(-c4c(C)ccc5[nH]nc(C6CC6)c45)c(Cl)cc23)C[C@@H]1C (atropisomer, axis not shown) [Compound 134, 1-((2S,6R)-4-((R)-6-chloro-7-(3-cyclopropyl-5-methyl-1H-indazol-4-yl)-2-(3-(dimethylamino)azetidin-1-yl)-8-fluoroquinazolin-4-yl)-2,6-dimethylpiperazin-1-yl)prop-2-en-1-one]	+++ (+++ indicates binding activity greater than 80%)
C=CC(=O)N1C[C@@H](C)N(c2nc(N3CC(N(C)C)C3)nc3c(F)c(-c4c(C)ccc5cnn(C)c45)c(Cl)cc23)C[C@H]1C (atropisomer, axis not shown) [Compound 243, 1-((2R,5R)-4-((R)-6-chloro-7-(1,6-dimethyl-1H-indazol-7-yl)-2-(3-(dimethylamino)azetidin-1-yl)-8-fluoroquinazolin-4-yl)-2,5-dimethylpiperazin-1-yl)prop-2-en-1-one]	+++ (+++ indicates binding activity greater than 80%)
C=CC(=O)N1C[C@H](C)N(c2nc(OC[C@@H]3CCCN3CC3CC3)nc3c(F)c(-c4c(C)ccc5cnn(C)c45)c(Cl)cc23)C[C@H]1C [Compound 239, 1-((2R,5S)-4-(6-chloro-2-(((S)-1-(cyclopropylmeth-yl)pyrrolidin-2-yl)methoxy)-7-(1,6-dimethyl-1H-indazol-7-yl)-8-fluoroquinazolin-4-yl)-2,5-dimethylpiperazin-1-yl)prop-2-en-1-one]	+++ (+++ indicates binding activity greater than 80%)
C=CC(=O)N1C[C@H](C)N(c2nc(OCCN3CCC(F)(F)CC3)nc3c(F)c(-c4c(C)ccc5[nH]nc(N)c45)c(Cl)cc23)C[C@H]1C [Compound 118, 1-((2R,5S)-4-(7-(3-amino-5-methyl-1H-indazol-4-yl)-6-chloro-2-(2-(4,4-difluoropiperidin-1-yl)ethoxy)-8-fluoroquinazolin-4-yl)-2,5-dimethylpiperazin-1-yl)prop-2-en-1-one]	+++ (+++ indicates binding activity greater than 80%)
C=CC(=O)N1C[C@H](C)N(c2nc(OC[C@H]3CCCN3C)nc3c(F)c(-c4c(C)ccc5[nH]nc(C6CC6)c45)c(Cl)cc23)C[C@H]1C [Compound 160, 1-((2R,5S)-4-(6-chloro-7-(3-cyclopropyl-5-methyl-1H-indazol-4-yl)-8-fluoro-2-(((R)-1-methylpyrrolidin-2-yl)methoxy)quinazolin-4-yl)-2,5-dimethylpiperazin-1-yl)prop-2-en-1-one]	+++ (+++ indicates binding activity greater than 80%)
C=CC(=O)N1C[C@H](C)N(c2nc(OC[C@@H]3CCCN3C)nc3c(F)c(-c4c(C)ccc5[nH]nc(C)c45)c(Cl)cc23)C[C@H]1C [Compound 185, 1-((2R,5S)-4-(6-chloro-7-(3,5-dimethyl-1H-indazol-4-yl)-8-fluoro-2-(((S)-1-methylpyrrolidin-2-yl)methoxy)quinazolin-4-yl)-2,5-dimethylpiperazin-1-yl)prop-2-en-1-one]	+++ (+++ indicates binding activity greater than 80%)
C=CC(=O)N1C[C@H](C)N(c2nc(N3CC(N(C)C)C3)nc3c(F)c(-c4c(C)ccc5onc(Cl)c45)c(Cl)cc23)C[C@H]1C [Compound 99, 1-((2R,5S)-4-(6-chloro-7-(3-chloro-5-methylbenzo[d]isoxazol-4-yl)-2-(3-(dimethylamino)azetidin-1-yl)-8-fluoroquinazolin-4-yl)-2,5-dimethylpiperazin-1-yl)prop-2-en-1-one]	+ (+ indicates binding activity greater than 0% and up to 50%)
C=CC(=O)N1CCN(c2nc(N3CC(N(C)C)C3)nc3c(F)c(-c4c(C)ccc5[nH]ncc45)c(Cl)cc23)CC1CC#N (centres unmarked) [Compound 267, 2-(1-acryloyl-4-(6-chloro-2-(3-(dimethyalmino)azetidin-1-yl)-8-fluoro-7-(5-methyl-1H-indazol-4-yl)quinazolin-4-yl)piperazin-2-yl)acetonitrile]	+++ (+++ indicates binding activity greater than 80%)
C=CC(=O)N1C[C@H](C)N(c2nc(NCCN3CCOCC3)nc3c(F)c(-c4c(C)ccc5[nH]nc(N)c45)c(Cl)cc23)C[C@H]1C [Compound 79, 1-((2R,5S)-4-(7-(3-amino-5-methyl-1H-indazol-4-yl)-6-chloro-8-fluoro-2-(2-morpholinoethylamino)quinazolin-4-yl)-2,5-dimethylpiperazin-1-yl)prop-2-en-1-one]	+++ (+++ indicates binding activity greater than 80%)
C=CC(=O)N1C[C@H](C)N(c2nc(Nc3cnn(C)c3)nc3c(F)c(-c4c(C)ccc5[nH]nc(N)c45)c(Cl)cc23)C[C@H]1C [Compound 68, 1-((2R,5S)-4-(7-(3-amino-5-methyl-1H-indazol-4-yl)-6-chloro-8-fluoro-2-(1-methyl-1H-pyrazol-4-ylamino)quinazolin-4-yl)-2,5-dimethylpiperazin-1-yl)prop-2-en-1-one]	+++ (+++ indicates binding activity greater than 80%)
C=CC(=O)N1C[C@H](C)N(c2nc(OC3CC(N(C)C)C3)nc3c(F)c(-c4c(C)ccc5[nH]ncc45)c(Cl)cc23)C[C@H]1C (stereo partly drawn) [Compound 264, 1-((2R,5S)-4-(6-chloro-2-(3-(dimethylamino)cyclo-butoxy)-8-fluoro-7-(5-methyl-1H-indazol-4-yl)quinazolin-4-yl)-2,5-dimethylpiperazin-1-yl)prop-2-en-1-one]	+++ (+++ indicates binding activity greater than 80%)
C=CC(=O)N1C[C@H](C)N(c2nc(NCCc3ncccn3)nc3c(F)c(-c4c(C)ccc5onc(N)c45)c(Cl)cc23)C[C@H]1C [Compound 91, 1-((2R,5S)-4-(7-(3-amino-5-methylbenzo[d]isoxazol-4-yl)-6-chloro-8-fluoro-2-(2-(pyrimidin-2-yl)ethylamino)quinazo-lin-4-yl)-2,5-dimethylpiperazin-1-yl)prop-2-en-1-one]	+++ (+++ indicates binding activity greater than 80%)
C=CC(=O)N1C[C@H](C)N(c2nc(OC[C@@H]3CCCN3C(C)C)nc3c(F)c(-c4c(C)ccc5[nH]nc(C6CC6)c45)c(Cl)cc23)C[C@H]1C [Compound 237, 1-((2R,5S)-4-(6-chloro-7-(3-cyclopropyl-5-methyl-1H-indazol-4-yl)-8-fluoro-2-(((S)-1-isopropylpyrrolidin-2-yl)methoxy)quinazolin-4-yl)-2,5-dimethylpiperazin-1-yl)prop-2-en-1-one]	++ (++ indicates binding activity from 50 to 80%)
C=CC(=O)N1C[C@H](C)N(c2nc(N3CC(N(C)C)C3)nc3c(F)c(-c4c(C)ccc5[nH]nc(C6CC6)c45)c(Cl)cc23)C[C@H]1C [Compound 57, 1-((2R,5S)-4-(6-chloro-7-(3-cyclopropyl-5-methyl-1H-indazol-4-yl)-2-(3-(dimethylamino)azetidin-1-yl)-8-fluoroquinazolin-4-yl)-2,5-dimethylpiperazin-1-yl)prop-2-en-1-one]	+++ (+++ indicates binding activity greater than 80%)
C=CC(=O)N1C[C@H](C)N(c2nc(N3CC(N(C)C)C3)nc3c(F)c(-c4ccc(F)c5[nH]ncc45)c(Cl)cc23)C[C@H]1C [Compound 29, 1-((2R,5S)-4-(6-chloro-2-(3-(dimethylamino)azetidin-1-yl)-8-fluoro-7-(7-fluoro-1H-indazol-4-yl)quinazolin-4-yl)-2,5-dimethylpiperazin-1-yl)prop-2-en-1-one]	+ (+ indicates binding activity greater than 0% and up to 50%)
C=CC(=O)N1C[C@H](C)N(c2nc(N3CC(N(C)C)C3)nc3c(F)c(-c4c(C)ccc5c(Cl)nn(C)c45)c(Cl)cc23)C[C@H]1C [Compound 195, 1-((2R,5S)-4-(6-chloro-7-(3-chloro-1,6-dimethyl-1H-indazol-7-yl)-2-(3-(dimethylamino)azetidin-1-yl)-8-fluoroquinazolin-4-yl)-2,5-dimethylpiperazin-1-yl)prop-2-en-1-one]	+ (+ indicates binding activity greater than 0% and up to 50%)
[2H]C([2H])([2H])N(C1CN(c2nc(N3C[C@@H](C)N(C(=O)C=C)C[C@@H]3C)c3cc(Cl)c(-c4c(C)ccc5[nH]nc(C)c45)c(F)c3n2)C1)C([2H])([2H])[2H] (atropisomer, axis not shown) [Compound 221, 1-((2R,5S)-4-((R)-6-chloro-7-(3,5-dimethyl-1H-indazol-4-yl)-2-(3-(di-perdeuteromethylamino)azetidin-1-yl)-8-fluoroquinazolin-4-yl)-2,5-dimethylpiperazin-1-yl)prop-2-en-1-one]	+++ (+++ indicates binding activity greater than 80%)
C=CC(=O)N1C[C@H](C)N(c2nc(OC[C@@H]3CCN(C)C3)nc3c(F)c(-c4c(C)ccc5cnn(C)c45)c(Cl)cc23)C[C@H]1C [Compound 174, 1-((2R,5S)-4-(6-chloro-7-(1,6-dimethyl-1H-indazol-7-yl)-8-fluoro-2-(((R)-1-methylpyrrolidin-3-yl)methoxy)quinazolin-4-yl)-2,5-dimethylpiperazin-1-yl)prop-2-en-1-one]	+++ (+++ indicates binding activity greater than 80%)
